Literature values, collected in patent publication US11452734B2, “Method of treating and preventing secondary hyperparathyroidism” (OPKO IRELAND GLOBAL HOLDINGS, LTD., priority 2006, dated 2022).

Target: T1, Vitamin D receptors (VDR) (Homo sapiens, UniProt P11473)
T1 sequence (P11473 1-427): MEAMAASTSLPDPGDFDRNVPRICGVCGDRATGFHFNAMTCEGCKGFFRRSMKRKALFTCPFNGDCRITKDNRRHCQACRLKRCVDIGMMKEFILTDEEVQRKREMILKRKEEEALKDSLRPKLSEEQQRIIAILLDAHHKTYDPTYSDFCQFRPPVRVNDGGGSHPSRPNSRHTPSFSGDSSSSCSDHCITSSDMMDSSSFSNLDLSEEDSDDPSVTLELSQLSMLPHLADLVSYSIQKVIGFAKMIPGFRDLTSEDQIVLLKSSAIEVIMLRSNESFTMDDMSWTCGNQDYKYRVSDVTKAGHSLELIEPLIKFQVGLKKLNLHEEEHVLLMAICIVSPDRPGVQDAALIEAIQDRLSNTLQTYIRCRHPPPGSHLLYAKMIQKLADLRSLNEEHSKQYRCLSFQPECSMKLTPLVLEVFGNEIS

Row | affinities for the VDR, compared among the three Vitamin D hormones | SMILES
1 | nearly identical | C=C1/C(=C\C=C2/CCC[C@]3(C)[C@@H]([C@H](C)/C=C/[C@@](C)(O)C(C)C)CC[C@@H]23)C[C@@H](O)C[C@@H]1O [1α,24(S)-dihydroxyvitamin D2]
2 | nearly identical | C=C1/C(=C\C=C2/CCC[C@]3(C)[C@@H]([C@H](C)/C=C/[C@H](C)C(C)(C)O)CC[C@@H]23)C[C@@H](O)C[C@@H]1O [1α,25-dihydroxyvitamin D2]
